Results: PMC11971462, “Generation and validation of a novel multitarget small molecule in glioblastoma” (Cell Death & Disease, 2025)

Tested on: GNS166 cells
Assay: Label-free proteomics differential expression
Assay type: cell-based, human
Protocol: Proteomic studies were performed by the Proteomics Facility of the CIC bioGUNE by label-free relative quantification on nLC MS/MS. […] In both approaches, the top 20 enriched terms were plotted and the pathways were clustered using divisive hierarchical clustering based on pairwise Jaccard distances.

## C#CCN(Cc1cc2cc(OCCCN3CCCCC3)ccc2n1S(=O)(=O)c1ccccc1)C(=O)CCCCCCC(=O)NO [DDI]
Protein P60059
  LogFC SC61G_HUMAN: -0.7245
Protein P61619
  Direction S61A1_HUMAN: Down
  LogFC S61A1_HUMAN: -0.5192
Protein P61916 GN=NPC2
  LogFC NPC2_HUMAN: 2.258
Protein P62081
  Direction RS7_HUMAN: Down
  LogFC RS7_HUMAN: -0.4241
Protein P62191
  Direction PRS4_HUMAN: Down
  LogFC PRS4_HUMAN: -0.4147
Protein P62241 GN=RPS8
  LogFC RS8_HUMAN: -0.4178
Protein P62760 GN=VSNL1
  LogFC VISL1_HUMAN: 1.015
Protein P62841 GN=RPS15
  LogFC RS15_HUMAN: -0.6326
Protein P63096 GN=GNAI1
  LogFC GNAI1_HUMAN: 2.584
Protein P63167
  Direction DYL1_HUMAN: Down
  LogFC DYL1_HUMAN: -0.5083
Protein P67809 GN=YBX1
  LogFC YBOX1_HUMAN: -0.6246
Protein P68104
  Direction EF1A1_HUMAN: Down
  LogFC EF1A1_HUMAN: -0.2726
Protein P68431
  Direction H31_HUMAN: Down
  LogFC H31_HUMAN: -4.298
Protein P78344
  Direction IF4G2_HUMAN: Down
  LogFC IF4G2_HUMAN: -0.799
Protein P78347
  Direction GTF2I_HUMAN: Down
  LogFC GTF2I_HUMAN: -2.48
Protein P78504 GN=JAG1
  LogFC JAG1_HUMAN: 1.553
Protein P80404 GN=ABAT
  LogFC GABT_HUMAN: 1.722
Protein P82970 GN=HMGN5
  LogFC HMGN5_HUMAN: 1.669
Protein Q0ZGT2 GN=NEXN
  LogFC NEXN_HUMAN: 1.075
Protein Q2NKX8
  Direction ERC6L_HUMAN: Down
  LogFC ERC6L_HUMAN: -1.52
Protein Q2NL82
  Direction TSR1_HUMAN: Down
  LogFC TSR1_HUMAN: -0.7691
Protein Q2TAL8
  Direction QRIC1_HUMAN: Down
  LogFC QRIC1_HUMAN: -0.7876
Protein Q3YEC7
  Direction RABL6_HUMAN: Down
  LogFC RABL6_HUMAN: -0.9067
Protein Q4VC31 GN=CCDC58
  LogFC CCD58_HUMAN: 2.085
Protein Q5BJD5 GN=TMEM41B
  LogFC TM41B_HUMAN: 1.572
Protein Q5EB52
  Direction MEST_HUMAN: Down
  LogFC MEST_HUMAN: -1.179
Protein Q5J8M3 GN=EMC4
  LogFC EMC4_HUMAN: 0.9113
Protein Q5JVS0 GN=HABP4
  LogFC HABP4_HUMAN: 1.16
Protein Q5K4L6
  Direction S27A3_HUMAN: Down
  LogFC S27A3_HUMAN: -1.576
Protein Q5T440
  Direction CAF17_HUMAN: Down
  LogFC CAF17_HUMAN: -1.623
Protein Q5TBA9 GN=FRY
  LogFC FRY_HUMAN: 0.4095
Protein Q5VV42
  Direction CDKAL_HUMAN: Down
  LogFC CDKAL_HUMAN: -0.9728
Protein Q5VWZ2 GN=LYPLAL1
  LogFC LYPL1_HUMAN: 2.901
Protein Q5VYK3
  Direction ECM29_HUMAN: Down
  LogFC ECM29_HUMAN: -1.336
Protein Q6IN85
  Direction P4R3A_HUMAN: Down
  LogFC P4R3A_HUMAN: -0.9894
Protein Q6NW34
  Direction NEPRO_HUMAN: Down
  LogFC NEPRO_HUMAN: -2.0501
Protein Q6NZI2
  Direction CAVN1_HUMAN: Down
  LogFC CAVN1_HUMAN: -0.9705
Protein Q6P2Q9
  Direction PRP8_HUMAN: Down
  LogFC PRP8_HUMAN: -0.5767
Protein Q6P996 GN=PDXDC1
  LogFC PDXD1_HUMAN: -1.201
Protein Q6PJG2 GN=MIDEAS
  LogFC MDEAS_HUMAN: -1.368
Protein Q6PL24 GN=TMED8
  LogFC TMED8_HUMAN: 1.071
Protein Q6SJ93 GN=FAM111B
  LogFC F111B_HUMAN: 1.175
Protein Q6VMQ6
  Direction MCAF1_HUMAN: Down
  LogFC MCAF1_HUMAN: -0.5577
Protein Q6XZF7
  Direction DNMBP_HUMAN: Down
  LogFC DNMBP_HUMAN: -1.235
Protein Q6YN16 GN=HSDL2
  LogFC HSDL2_HUMAN: 0.7277
Protein Q6ZNB6
  Direction NFXL1_HUMAN: Down
  LogFC NFXL1_HUMAN: -0.9938
Protein Q6ZRP7
  Direction QSOX2_HUMAN: Down
  LogFC QSOX2_HUMAN: -1.536
Protein Q6ZRS2 GN=SRCAP
  LogFC SRCAP_HUMAN: -1.996
Protein Q6ZUT6
  Direction CCD9B_HUMAN: Down
  LogFC CCD9B_HUMAN: -1.697
Protein Q7KZF4 GN=SND1
  LogFC SND1_HUMAN: 0.6224
Protein Q7L0J3 GN=SV2A
  LogFC SV2A_HUMAN: 0.9586
Protein Q7L576
  Direction CYFP1_HUMAN: Down
  LogFC CYFP1_HUMAN: -0.7029
Protein Q7Z3K3
  Direction POGZ_HUMAN: Down
  LogFC POGZ_HUMAN: -1.413
Protein Q7Z3U7 GN=MON2
  LogFC MON2_HUMAN: -0.4314
Protein Q7Z4S6
  Direction KI21A_HUMAN: Down
  LogFC KI21A_HUMAN: -1.343
Protein Q08AD1
  Direction CAMP2_HUMAN: Down
  LogFC CAMP2_HUMAN: -0.4479
Protein Q8IUE6 GN=H2AC21
  LogFC H2A2B_HUMAN: -0.9956
Protein Q8IUF8 GN=RIOX2
  LogFC RIOX2_HUMAN: -1.969
Protein Q8IUR7 GN=ARMC8
  LogFC ARMC8_HUMAN: -2.228
Protein Q8IW35
  Direction CEP97_HUMAN: Down
  LogFC CEP97_HUMAN: -0.4382
Protein Q8IWT6 GN=LRRC8A
  LogFC LRC8A_HUMAN: -0.7869
Protein Q8IX12
  Direction CCAR1_HUMAN: Down
  LogFC CCAR1_HUMAN: -0.6634
Protein Q8IY67
  Direction RAVR1_HUMAN: Down
  LogFC RAVR1_HUMAN: -2.239
Protein Q8IYB5 GN=SMAP1
  LogFC SMAP1_HUMAN: -0.6906
Protein Q8IYM9
  Direction TRI22_HUMAN: Down
  LogFC TRI22_HUMAN: -2.3161
Protein Q8N1G4 GN=LRRC47
  LogFC LRC47_HUMAN: -0.5175
Protein Q8N2W9 GN=PIAS4
  LogFC PIAS4_HUMAN: 0.8535
Protein Q8N3C0
  Direction ASCC3_HUMAN: Down
  LogFC ASCC3_HUMAN: -0.4031
Protein Q8N3F8
  Direction MILK1_HUMAN: Down
  LogFC MILK1_HUMAN: -1.876
Protein Q8N5I4 GN=DHRSX
  LogFC DHRSX_HUMAN: -1.799
Protein Q8N6H7 GN=ARFGAP2
  LogFC ARFG2_HUMAN: -2.652
Protein Q8N6M3 GN=FITM2
  LogFC FITM2_HUMAN: 1.422
Protein Q8N201
  Direction INT1_HUMAN: Down
  LogFC INT1_HUMAN: -1.252
Protein Q8N684
  Direction CPSF7_HUMAN: Down
  LogFC CPSF7_HUMAN: -0.7682
Protein Q8N884
  Direction CGAS_HUMAN: Down
  LogFC CGAS_HUMAN: -1.895
Protein Q8NAV1 GN=PRPF38A
  LogFC PR38A_HUMAN: 1.096
